In patent US7244755B2, “Hydroxypropylamines” (Pharmacia & Upjohn Company, priority 2001, dated 2007):

- melting point: 61 to 72 °C
Compound: CCCN(CCC)C(=O)c1cc(C)cc(C(=O)N[C@@H](Cc2cc(F)cc(F)c2)[C@@H](O)CCN)c1 [Example 1, 5-amino-1,2,4,5-tetradeoxy-1-(3,5-difluorophenyl)-2-({3-[(dipropylamino)carbonyl]-5-methylbenzoyl}amino)-L-threo-pentitol]
